From the supplement of paper PMC11451515

Legend:
Test in all cases: AUC of viability dose-response curve (% viability x log10 dose units); higher = less sensitive
Settings in all cases: 48 h
[1] = tested on: P12-Ichikawa
Method in brief: (§1)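 Area under the curve was integrated by trapezoidal rule from a log-logistic fit of normalised viability, with curves exceeding full viability scaled and quality-control failures removed. The fit had four parameters over log10 doses. Viability came from CellTiter-Glo One luminescence, normalised per plate to DMSO and cell-free wells, after leukemia cells adapted to each medium (500 or 1000 cells/well, 1536-well plates) were exposed to library compounds in DMSO for 48 h at 37°C. The 11 threefold doses ran from 47 μM to 0.79 nM.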

[2] = tested on: NOMO1
Method in brief: as §1

[3] = tested on: SEM cells
Method in brief: as §1

[4] = RPMI 5 mM glucose + 10% dialyzed FBS

Compound | AUC of viability dose-response curve ([1]; HPLM + 10% dialyzed FBS) | AUC of viability dose-response curve ([1]; RPMI 5 mM glucose + 10% FBS) | AUC of viability dose-response curve [1, 4] | AUC of viability dose-response curve ([2]; HPLM + 10% dialyzed FBS) | AUC of viability dose-response curve ([2]; RPMI 5 mM glucose + 10% FBS) | AUC of viability dose-response curve [2, 4] | AUC of viability dose-response curve ([3]; HPLM + 10% dialyzed FBS) | AUC of viability dose-response curve ([3]; RPMI 5 mM glucose + 10% FBS) | AUC of viability dose-response curve [3, 4]
Cc1c(-c2cccc3c(CCCOc4cccc5ccccc45)c(C(=O)O)n(Cc4cccnc4)c23)c(COc2ccc(N3CCN([S+](=O)([O-])N(C)C)CC3)cc2)nn1C | 427 | 421 | 418 | 407 | 416 | 423 | 415 | 456 | 423
COc1cc2ncn(-c3cc(OCc4ccccc4[S+](C)(=O)[O-])c(C#N)s3)c2cc1OC | 450 | 450 | 428 | 443 | 435 | 457 | 457 | 461 | 470
O=[N+]([O-])c1ncc[nH]1 | 418 | 395 | 414 | 416 | 402 | 400 | 402 | 444 | 459
N\C1=N\C2=C(N=C[N]2COCCO)C(=O)N1 | 472 | 465 | 473 | 464 | 461 | 467 | 451 | 460 | 431
Clc1cccc(-n2nnnc2NCc2ccccc2Oc2ccccn2)c1Cl | 458 | 467 | 441 | 472 | 472 | 470 | 439 | 470 | 474
CCC(C)N1\N=C/N(C1=O)C2=CC=C(C=C2)N3CCN(CC3)C4=CC=C(OC[C@H]5CO[C@@](C[N]6C=NC=N6)(O5)C7=CC=C(Cl)C=C7Cl)C=C4 (some centres not stated) | 458 | 463 | 458 | 448 | 456 | 454 | 468 | 472 | 452
CCN1C[C@H](C)[N]2C(=C(O)C3=C2\C(=N/N(CC4=CC=C(F)C(=C4)Cl)C3=O)C(=O)NC)C1=O | 458 | 460 | 459 | 408 | 442 | 427 | 440 | 409 | 443
C[C@@H]1O[C@@H](O[C@H]2C[C@@H](O)[C@]3(CO)[C@H]4[C@H](O)C[C@]5(C)[C@@H](C6=CC(=O)OC6)CC[C@]5(O)[C@@H]4CC[C@]3(O)C2)[C@H](O)[C@H](O)[C@H]1O | 203 | 235 | 211 | 197 | 248 | 227 | 179 | 234 | 216
CCN(CC)CCOc1ccc(Cc2ccccc2)cc1 | 417 | 446 | 409 | 403 | 431 | 464 | 442 | 380 | 409
N#CC(c1ccnc(NCCc2cccnc2)n1)c1nc2ccccc2s1 (configuration not stated) | 467 | 473 | 470 | 469 | 475 | 450 | 454 | 448 | 468
CCOc1cc2ncc(C#N)c(Nc3ccc(OCc4ccccn4)c(Cl)c3)c2cc1NC(=O)/C=C/CN(C)C | 293 | 320 | 321 | 279 | 303 | 328 | 276 | 209 | 268
C[C@H]1C[C@H]2[C@@H]3CC[C@](O)(C(=O)CO)[C@@]3(C)C[C@H](O)[C@@H]2[C@@]\4(C)/C=C\C(=O)\C=C14 | 378 | 341 | 314 | 456 | 444 | 451 | 315 | 357 | 352
N[S+](=O)([O-])c1cc2c(cc1Cl)NC(C(Cl)Cl)N[S+]2(=O)[O-] (configuration not stated) | 456 | 459 | 467 | 450 | 453 | 442 | 431 | 450 | 447
O=C(O)CCCCC(CCSCc1ccccc1)SCc1ccccc1 (configuration not stated) | 433 | 462 | 457 | 446 | 457 | 451 | 463 | 458 | 467
CC(C)=CCC/C(C)=C/CC/C(C)=C/CSc1ccccc1C(=O)O | 402 | 366 | 390 | 393 | 432 | 395 | 348 | 355 | 374
CC1=C(/C=C/C(C)=C/C=C/C(C)=C\C(=O)O)C(C)(C)CCC1 | 445 | 400 | 415 | 438 | 408 | 420 | 405 | 450 | 379
CCCC(C)(COC(N)=O)COC(=O)NC(C)C (configuration not stated) | 459 | 455 | 458 | 466 | 451 | 446 | 451 | 443 | 412
CN(C)C1=CC(=CC=C1)C\2=C\3C(=O)N(NC3=C/C(=O)N2C)C4=CC=CC=C4Cl | 312 | 327 | 342 | 292 | 314 | 314 | 322 | 317 | 311
O=C/1NC(=O)C(=C1C2=CN=C3C=CC=C[N]23)/C4=C[N]5CCN(CC6=C5C4=CC=C6)C(=O)N7CCOCC7 | 334 | 301 | 370 | 470 | 465 | 462 | 138 | 153 | 151
Cc1ccccc1C(OCCN(C)C)c1ccccc1 (configuration not stated) | 446 | 476 | 469 | 462 | 468 | 457 | 453 | 463 | 465
CC(C)=CCC/C(C)=C/CC/C(C)=C/CC/C(C)=C/CC/C(C)=C/CC/C(C)=C/CC/C(C)=C/CC/C(C)=C/CC/C(C)=C/CO | 467 | 457 | 465 | 450 | 462 | 455 | 475 | 436 | 431
COc1cc(CCc2cc(NC(=O)c3ccc(N4C[C@@H](C)N[C@@H](C)C4)cc3)n[nH]2)cc(OC)c1 | 448 | 435 | 414 | 442 | 466 | 455 | 333 | 319 | 332
c1ccc2c(Cc3c[nH]c4ccccc34)c[nH]c2c1 | 434 | 420 | 417 | 440 | 434 | 444 | 385 | 396 | 376
Cc1ccc(C(=O)Nc2cccc(C(F)(F)F)c2)cc1-c1ccc2nc(NCCN3CCOCC3)ncc2c1 | 418 | 408 | 408 | 384 | 388 | 384 | 384 | 378 | 378
N#C/C(=C\c1ccc(O)c(O)c1)C(=O)NCc1ccccc1 | 448 | 436 | 421 | 446 | 447 | 460 | 447 | 440 | 440
CC\12CCC(=O)\C=C1CCC3C2CCC4(C)C3CCC4(O)C#C (configuration not stated) | 442 | 452 | 421 | 456 | 430 | 428 | 452 | 461 | 458
CC(C)N(C[C@H]1O[C@@H](n2cnc3c(N)ncnc32)[C@H](O)[C@@H]1O)[C@H]1C[C@@H](CCc2nc3cc(C(C)(C)C)ccc3[nH]2)C1 | 320 | 450 | 383 | 386 | 450 | 429 | 411 | 333 | 399
C[C@@H](NCCCc1cccc(C(F)(F)F)c1)c1cccc2ccccc12 | 455 | 455 | 439 | 455 | 418 | 447 | 467 | 458 | 445
